The record followed here is US10919843B2, “Cannabidiol derivatives as inhibitors of the HIF prolyl hydroxylases activity” (priority 2017, dated 2021).

For assay [1], the system named is HIF-1α. Put plainly: HIF-1α transactivation assay in NIH-3T3-EPO-Luc cells. Format: cell-based. The following applies: for EC50: read-out: Potency EC50 HIF-1α; for Efficacy HIF-1α (IRA coefficient): relative to 150 μM DFX. As for the experimental part: (§1) To investigate the biological activities of the different compounds, HIF-1α transactivation assays were performed either in NIH-3T3-EPO-Luc cells (Table 1) or in HaCaT-EPO-luc cells (Table 2). The NIH3T3-EPO-luc and HaCaT-EPO-luc cells have been stably transfected with the plasmid Epo-Luc plasmid. The EPO-Hypoxia Response Element (HRE)-luciferase reporter plasmid contains three copies of the HRE consensus sequence from the promoter of the erythropoietin gene fused to the luciferase gene.
NIH3T3-EPO-luc cells were maintained at 37° C. in a humidified atmosphere containing 5% CO2 in DMEM supplemented with 10% fetal calf serum (FBS), and 1% (v/v) penicillin/streptomycin. Deferoxamine (DFX) was purchased from Sigma-Aldrich (USA). Cells (1×10^4/well in 96-well plates) were seeded the day before the assay. The next day, the cells were stimulated with increasing concentrations of either Cannabidiol (CBD), VCE-004 or compounds II to X. After six hours of stimulation the cells were lysed in 25 mM Tris-phosphate pH 7.8, 8 mM MgCl2, 1 mM DTT, 1% Triton X-100, and 7% glycerol during 15 min at RT in a horizontal shaker. Luciferase activity was measured using a microplate luminometer (Berthold) following the instructions of the luciferase assay kit (Promega, Madison. Wis., USA).
(§2) HaCaT-EPO-Luc cells were maintained at 37° C. in a humidified atmosphere containing 5% CO2 in DMEM supplemented with 10% fetal calf serum (FBS), and 1% (v/v) penicillin/streptomycin. The cells (1×10^5/well in 24-well plates) were seeded the day before the assay and then stimulated with increasing concentrations of either Cannabidiol (CBD), VCE-004 or compounds II to X. After six hours of stimulation the cells were lysed in 25 mM Tris-phosphate pH 7.8, 8 mM MgCi2, 1 mM DTT, 1% Triton X-100, and 7% glycerol during 15 min at RT in a horizontal shake. Luciferase activity was measured in the cell lysates as indicated for NIH3T3-EPO-Luc cells. The RLUs are calculated and the EC50 and IRA (Intrinsic relative activity) values in both cell lines were determined relative to 150 μM deferoxamine (DFX) using the following equation: IRA coefficient=(EC50-DFX×Emax)/(EC50×Emax-DFX), where EC50 and Emax denote EC50 and Emax of the agonist, and EC50-DFX and Emax-DFX denote EC50 and Emax values of the standard agonist DFX (Table 1 and 2).

Assay [2] relates to HIF-1α. Put plainly: HIF-1α transactivation assay in HaCaT-EPO-luc cells. The assay is classed as cell-based. The following applies: for EC50: read-out: Potency EC50 HIF-1α; for Efficacy HIF-1α (IRA coefficient): relative to 150 μM DFX. As for the experimental part: as §1, §2
Setting [3] is: NIH-3T3-EPO-Luc cells, 6 h stimulation.
Setting [4] is: HaCaT-EPO-Luc cells, 6 h stimulation.

Usually EC50 stands for the concentration giving half of the maximal effect. With `C=C(C)[C@@H]1CCC(C)=C[C@H]1C1=C(O)C(=O)C(CCCCC)=C(NCCCC)C1=O` [Compound V], the figures for the EC50 in assay [1] (6 h) and in assay [2] (6 h) were 1.8 µM and 1.9 µM, respectively. The “Efficacy HIF-1α (IRA coefficient)” value in assay [1] (setting [3]) is 0.85; in assay [2] (setting [4]), 5.01.
`C=C(C)[C@@H]1CCC(C)=C[C@H]1C1=C(O)C(=O)C(CCCCC)=C(NCC(C)(C)C)C1=O` [IX]: the results for the EC50 in assay [1] (6 h) and in assay [2] (6 h) were 2.5 µM and 1.4 µM, respectively.
Regarding `C=C(C)[C@@H]1CCC(C)=C[C@H]1C1=C(O)C(=O)C(CCCCC)=C(NC)C1=O` [Compound VI], the values for the EC50 in assay [1] (6 h) and in assay [2] (6 h) were 2.8 µM and 4 µM, respectively. Besides, the “Efficacy HIF-1α (IRA coefficient)” value is reported as 0.61 in assay [1] (setting [3]) and 3.02 in assay [2] (setting [4]).
Regarding `C=C(C)[C@@H]1CCC(C)=C[C@H]1C1=C(O)C(=O)C(CCCCC)=C(NC(C)C)C1=O` [Compound VII], the EC50 was 2.9 µM in assay [1] (6 h) and 5.5 µM in assay [2] (6 h). Further, the “Efficacy HIF-1α (IRA coefficient)” value in assay [1] (setting [3]) was 0.68; in assay [2] (setting [4]), 2.3.
For the molecule `C=C(C)[C@@H]1CCC(C)=C[C@H]1C1=C(O)C(=O)C(CCCCC)=C(NCC)C1=O` [II], the values for the 50% effective concentration (EC50) in assay [1] (6 h) and in assay [2] (6 h) were 4.3 µM and 3.2 µM, respectively. Moreover, the “Efficacy HIF-1α (IRA coefficient)” value in assay [1] (setting [3]) came out at 0.46; in assay [2] (setting [4]) it was 3.87.
For `C=C(C)[C@@H]1CCC(C)=C[C@H]1C1=C(O)C(=O)C(CCCCC)=C(NCC(C)C)C1=O` [IV] the same measures were 3.2 µM, 1.6 µM, 0.61 and 5.64.
Take `C=C(C)[C@@H]1CCC(C)=C[C@H]1C1=C(O)C(=O)C(CCCCC)=C(NCCC(C)C)C1=O` [X]: in assay [1] (setting [3]), the “Efficacy HIF-1α (IRA coefficient)” value is recorded as 0.29 and the EC50 is 3.3 µM. For the same molecule, in assay [2] (setting [4]), the “Efficacy HIF-1α (IRA coefficient)” value was 10.35 and the EC50 is 1.2 µM.
On to `C=C(C)[C@@H]1CCC(C)=C[C@H]1C1=C(O)C(=O)C(CCCCC)=C(NCc2ccccc2)C1=O` [Compound VIII], for which the EC50 in assay [1] (6 h) worked out at 2.6 µM; in assay [2] (6 h), 1.4 µM.
Take `C=C(C)[C@@H]1CCC(C)=C[C@H]1C1=C(O)C(=O)C(CCCCC)=C(NCCCCC)C1=O` [III]: the EC50 in assay [1] (6 h) stood at 3.6 µM; in assay [2] (setting [4]), 1.7 µM. The “Efficacy HIF-1α (IRA coefficient)” value in assay [1] (setting [3]) was found to be 0.28; in assay [2] (setting [4]) it was 5.84.
Regarding `C=C(C)[C@@H]1CCC(C)=C[C@H]1C1=C(O)C(=O)C(CCCCC)=C(NCCC(C)C)C1=O` [IX], the “Efficacy HIF-1α (IRA coefficient)” value stood at 0.8 in assay [1] (setting [3]) and 8.64 in assay [2] (setting [4]).
